Reference: PubChem BioAssay (NCI)
Values joined by “and” are separate entries in the source; they are usually repeats but may differ in a detail not shown here. Equal entries are not always repeated.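 In this assay, cells in 96-well plates receive the compound at five concentrations for 48 hours. Endpoints are linearly interpolated between the surrounding concentrations. Here, GI50 denotes the concentration required for 50% inhibition of growth. TGI denotes the concentration required for complete inhibition of growth.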

What was measured:
Assay in all cases: DTP human tumour cell line panel, 48 h
A498 renal = system: A498 renal
HCT-116 colon = system: HCT-116 colon
HOP-92 NSCLC = system: HOP-92 NSCLC
MALME-3M melanoma = system: MALME-3M melanoma
MCF7 breast = system: MCF7 breast
MDA-MB-435 = system: MDA-MB-435
OVCAR-4 ovarian = system: OVCAR-4 ovarian
RXF 393 renal = system: RXF 393 renal
SNB-19 CNS = system: SNB-19 CNS
SN12C renal = system: SN12C renal

Structure (SMILES) | TGI (A498 renal) | TGI (HCT-116 colon) [µM] | TGI (HOP-92 NSCLC) [µM] | TGI (MALME-3M melanoma) | TGI (MCF7 breast) | TGI (MDA-MB-435) [µM] | TGI (OVCAR-4 ovarian) | TGI (RXF 393 renal) | TGI (SNB-19 CNS) | GI50 (A498 renal) | GI50 (HCT-116 colon) | GI50 (HOP-92 NSCLC) [µM] | GI50 (MALME-3M melanoma) [µM] | GI50 (MCF7 breast) | GI50 (MDA-MB-435) | GI50 (OVCAR-4 ovarian) | GI50 (RXF 393 renal) | GI50 (SN12C renal) | TGI (SN12C renal) [µM] | GI50 (SNB-19 CNS)
CC1(C)CCSC(/C=C/c2ccccc2)=N1 | 36.4 µM | 26.7 | 35.9 | 25.6 µM | 27.6 µM | 32.6 | 32.5 µM | 47.7 µM | 46 µM | – | – | – | – | – | – | – | – | – | – | –
O=C(Oc1ccccc1)c1cc(O)c(O)c(O)c1 | 76.1 µM | > 100 | 81.4 | > 100 µM | > 100 µM | > 100 | > 100 µM | > 100 µM | > 100 µM | 5 µM | 11.7 µM | 8.75 | 21.8 | 24.7 µM | 13.1 µM | 14 µM | 25.6 µM | 9.73 µM | > 100 | 13.8 µM
COc1cc2c(/C=C3/C(=O)Nc4ccccc43)c(Cl)n(Cc3ccccc3)c2cc1C | > 100 µM | > 100 | > 100 | > 100 µM | > 100 µM | > 100 | – | > 100 µM | > 100 µM | > 100 µM | > 100 µM | > 100 | > 100 | > 100 µM | 64.4 µM | – | > 100 µM | > 100 µM | > 100 | > 100 µM
O=C1C(NCCO)=C(N2CC2)C(=O)C(NCCO)=C1N1CC1 | > 100 µM | 67.1 | > 100 | > 100 µM | > 100 µM | > 100 | > 70.8 µM | > 100 µM | > 100 µM | – | – | – | – | – | – | – | – | – | 56.7 | –
OCCNc1nc(NCCO)nc(Nc2ccc(C3=NN(c4cc(Cl)cc(Cl)c4)C(c4ccc(Cl)cc4)C3)cc2)n1 (centres undefined) | 3.57 µM | 3.05 | 4.42 | 3.92 µM | 3.31 µM | 3.11 | 5.02 µM | 2.91 µM | 4.12 µM | 1.73 µM | 1.59 µM | 2.04 | 2.1 | 1.42 µM | 1.65 µM | 2 µM | 1.44 µM | 1.82 µM | 3.47 | 2.07 µM
COc1nccc(-c2c(-c3ccc(F)cc3)ncn2C2CCC(O)CC2)n1 (centres undefined) | > 100 µM | > 100 | > 100 | > 100 µM | > 100 µM | > 100 | > 100 µM | > 100 µM | > 100 µM | 21.5 µM | 79.3 µM | > 100 | > 100 | 24.9 µM | 54.3 µM | > 65.3 µM | > 79.2 µM | 61.8 µM | > 100 | > 100 µM
COc1ncnc2c(NC3OC(CO)C(O)C3O)ncnc12 (centres undefined) | 1.58 µM | 0.604 | 0.527 | > 100 µM | 0.443 µM | > 100 | 7.08 µM | 12.7 µM | 74 µM | – | – | – | – | – | – | – | – | – | 10.6 | –
Cc1c(C(=O)/C=C/c2ccc(O)cc2)nnn1-c1ccnc2c(C(F)(F)F)cccc12 | > 100 µM | > 100 | > 100 | 75.3 µM | > 100 µM | > 100 | – | 67.3 µM | > 100 µM | 51 µM | 6.66 µM | 34.5 | 12.2 | 23.5 µM | 10.8 µM | – | 16.6 µM | 18 µM | > 100 | 24.9 µM
COc1cc(N2CCC(N(C)C)CC2)ccc1Nc1ncc(Cl)c(Nc2ccccc2P(C)(C)=O)n1 | 0.476 µM and 0.53 µM | > 39.2 | 0.918 | 31.7 µM and > 7.77 µM | 21.6 µM and > 10 µM | > 87.6 | 10.8 µM and > 10 µM | 1.88 µM and 0.874 µM | 98.7 µM and > 10 µM | 0.128 µM and 0.086 µM | 1.4 µM and 0.183 µM | 0.0882 | – | 0.202 µM and 0.0522 µM | 1.94 µM and 0.972 µM | 0.448 µM and 0.615 µM | 0.442 µM and 0.202 µM | 0.971 µM and 0.398 µM | > 72.8 | 2.25 µM and 1.07 µM
COc1ccc(/C=C/C(=O)c2ccc(Nc3ncnc4ccccc34)cc2)cc1OC | > 100 µM | 16.8 | 52.7 | > 100 µM | 14.3 µM | > 100 | 27 µM | 9.96 µM | > 100 µM | 8.97 µM | 0.547 µM | 2.05 | 13.8 | 2.43 µM | 2.93 µM | 3.26 µM | 2.2 µM | 10.9 µM | > 100 | 11.5 µM
N#Cc1c(NC(=O)c2cccs2)[n+]([O-])c2ccccc2[n+]1[O-] | > 100 µM | > 100 | > 100 | > 100 µM | > 100 µM | > 100 | > 100 µM | > 100 µM | > 100 µM | > 100 µM | > 100 µM | 81.7 | 96.2 | > 100 µM | > 100 µM | > 100 µM | > 100 µM | > 100 µM | > 100 | > 100 µM
O=C(CNC(=O)c1cccc2ccccc12)Nc1ccccc1Oc1cccc(O)c1 | > 25 µM | > 25 | > 25 | > 25 µM | > 25 µM | 3.07 | > 25 µM | 15.4 µM | > 25 µM | 5.11 µM | 1.36 µM | > 25 | 5.88 | 4.51 µM | 0.755 µM | > 25 µM | 4.12 µM | > 25 µM | > 25 | 8.73 µM
C[C@]12CC[C@H]3[C@@H](CCC4=CC(=O)CC[C@@H]43)[C@@H]1CC[C@@H]2OC1(O)C(=O)c2ccccc2C1=O | > 100 µM | 30.1 | > 100 | > 100 µM | > 100 µM | > 100 | > 100 µM | > 100 µM | > 100 µM | – | – | – | – | – | – | – | – | – | 34.4 | –
FC(F)(F)c1ccc2c(c1)N(CCCN1CCN(C3CC3)CC1)c1ccccc1S2 | 23.3 µM | 23.2 | 28.1 | 31.7 µM | 22.1 µM | 27.6 | 23.7 µM | 24.1 µM | 36.2 µM | 11 µM | 9.43 µM | 13.9 | 14 | 9.53 µM | 12.2 µM | 11.1 µM | 11.5 µM | 13.3 µM | 28.1 | 17.1 µM
